Where “and” joins values, the source holds several entries; their conditions need not be identical. Equal values may be shown once. Read-outs that look alike come from different tables or passages of the source.
What was measured:
human VR1 [1] = target: T1, human VR1 (Homo sapiens, UniProt Q8NER1); assay: Human VR1 [3H] RTX binding assay; conditions: 3H-RTX binding; for inhibition at 1 µM: compound at 1 μM; for Ki: hVR1, read-out: 3H-RTX binding assay Ki hVR1
T1 construct: expressed in transfected cells; host or cells: HEK293
T1 sequence (Q8NER1 whole entry): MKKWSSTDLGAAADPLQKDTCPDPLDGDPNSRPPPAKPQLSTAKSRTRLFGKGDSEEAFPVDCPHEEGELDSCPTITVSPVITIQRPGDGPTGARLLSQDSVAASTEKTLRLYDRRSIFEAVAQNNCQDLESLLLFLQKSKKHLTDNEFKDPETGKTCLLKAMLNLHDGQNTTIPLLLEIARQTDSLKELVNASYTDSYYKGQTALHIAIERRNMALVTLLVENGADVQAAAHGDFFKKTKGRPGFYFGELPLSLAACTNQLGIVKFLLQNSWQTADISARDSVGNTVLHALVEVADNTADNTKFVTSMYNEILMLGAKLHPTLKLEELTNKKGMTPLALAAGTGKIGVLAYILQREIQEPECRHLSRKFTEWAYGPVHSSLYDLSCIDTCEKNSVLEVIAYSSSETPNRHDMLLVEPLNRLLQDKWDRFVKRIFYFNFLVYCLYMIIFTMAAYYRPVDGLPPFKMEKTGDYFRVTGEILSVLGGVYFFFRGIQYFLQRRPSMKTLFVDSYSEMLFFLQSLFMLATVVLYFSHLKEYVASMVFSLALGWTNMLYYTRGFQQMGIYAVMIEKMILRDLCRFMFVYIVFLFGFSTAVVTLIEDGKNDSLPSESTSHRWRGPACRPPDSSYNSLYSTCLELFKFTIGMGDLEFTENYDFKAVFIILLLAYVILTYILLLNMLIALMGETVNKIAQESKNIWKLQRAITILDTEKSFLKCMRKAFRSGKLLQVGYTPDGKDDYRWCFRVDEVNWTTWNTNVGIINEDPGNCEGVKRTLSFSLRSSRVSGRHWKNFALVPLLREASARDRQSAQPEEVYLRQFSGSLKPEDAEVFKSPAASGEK
In short: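 Membranes from HEK293 cells transfected with human VR1, about 120 μg protein/ml, incubated with [3H] RTX in HEPES buffer pH 7.4 with 0.25 mg/mL fatty acid-free BSA for 60 min at 37° C. Bound radioactivity measured by scintillation counting. Non-specific binding defined with 200 nM unlabeled RTX.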

human VR1 [2] = target: T1, human VR1; assay: Human VR1 functional assay (intracellular Ca++, FLIPR, capsaicin challenge); type: cell-based
Method: The functional activity of the test compounds was determined by measuring changes in intracellular calcium concentration using a Ca^++-sensitive fluorescent dye and FLIPR™ technology.
EC50 or IC50 values were determined from dose-response studies.

[3] = FLIPR functional assay IC50 hVR1 60 min, 60 min
[4] = hVR1, capsaicin challenge, read-out: FLIPR functional assay IC50 hVR1

| Compound | inhibition at 1 µM (human VR1 [1]) [%] | Ki (human VR1 [1]) | IC50 (human VR1 [2]; [3]) [nM] | IC50 (human VR1 [2]; [4]) | IC50 (human VR1 [2]; read-out: FLIPR functional assay IC50 hVR1 60 min, 60 min) [nM] |
| --- | --- | --- | --- | --- | --- |
| CCCCOc1ccc(C(=O)Nc2cnc3ccccc3c2)cc1 [4-Butoxy-N-quinolin-3-yl-benzamide] |  | 155 nM |  | 10000 nM |  |
| CCCCC1CCC(C(=O)Nc2cnc3ccccc3c2)CC1 (stereo not drawn) [4-Butyl-cyclohexanecarboxylic acid quinolin-3-ylamide] | 81 | 124 nM |  | 170 nM |  |
| CN(C(=O)c1ccc(NC2CCCCC2)cc1)c1cnc2ccccc2c1 [4-Cyclohexylamino-N-methyl-N-quinolin-3-yl-benzamide] |  | 2160 nM |  | 10000 nM |  |
| O=C(Nc1cnc2ccccc2c1)c1ccc(NC2CCCC2)cc1 [4-Cyclopentylamino-N-quinolin-3-yl-benzamide] | 32 |  |  | 3200 nM |  |
| O=C(Nc1cnc2ccccc2c1)c1ccc(N(Cc2ccccc2)Cc2ccccc2)cc1 [4-Dibenzylamino-N-quinolin-3-yl-benzamide] | 51 | 441 nM | 4200 |  |  |
| CCCCN(CCCC)c1ccc(C(=O)Nc2cnc3ccccc3c2)cc1 [4-Dibutylamino-N-quinolin-3-yl-benzamide] |  | 241 nM | 270 | 4600 nM |  |
| CCCCCCN(CCCCCC)c1ccc(C(=O)Nc2cnc3ccccc3c2)cc1 [4-Dihexylamino-N-quinolin-3-yl-benzamide] | 74 | 185 nM | 2900 |  |  |
| CCCN(CCC)c1ccc(C(=O)Nc2cnc3ccccc3c2)cc1 [4-Dipropylamino-N-quinolin-3-yl-benzamide] |  | 219 nM | 166 | 610 nM |  |
| CCCCCNc1ccc(C(=O)Nc2cnc3ccccc3c2)cc1 [4-Pentylamino-N-quinolin-3-yl-benzamide] |  | 876 nM | 30000 | 8100 nM |  |
| O=C(Nc1cnc2ccccc2c1)c1ccc(NCCc2ccccc2)cc1 [4-Phenethylamino-N-quinolin-3-yl-benzamide] | 31 |  |  | 9200 nM |  |
| O=C(Nc1cnc2ccccc2c1)c1ccc(N2CCNCC2)cc1 [4-Piperazin-1-yl-N-quinolin-3-yl-benzamide] | 1 |  |  | 740 nM |  |
| CCCC1CCN(c2ccc(C(=O)Nc3cnc4ccccc4c3)cn2)CC1 [4-Propyl-3,4,5,6-tetrahydro-2H-{1,2′}bipyridinyl-5′-carboxylic acid quinolin-3-ylamide] | 93 | 117 nM |  | 490 nM |  |
| CCCCC(C)(C)c1ccc(CCCC(=O)Nc2cnc3ccccc3c2)cc1 [4-{4-(1,1-Dimethyl-pentyl)-phenyl}-N-quinolin-3-yl-butyramide] | 82 | 221 nM |  | 10000 nM |  |
| CCC(C)(C)c1ccc(C=CCC(=O)Nc2cnc3ccccc3c2)cc1 [4-{4-(1,1-Dimethyl-propyl)-phenyl}-but-3-enoic acid quinolin-3-ylamide] | 55 | 137 nM |  | 10000 nM |  |
| CC(C)CCN(C)c1ccc(C(=O)Nc2cnc3ccccc3c2)cc1 [4-{Methyl-(3-methyl-butyl)-amino}-N-quinolin-3-yl-benzamide] | 90 | 554 nM |  | 280 nM |  |
| O=C(Nc1cnc2ccccc2c1)c1cc2cc(Cl)ccc2[nH]1 [5-Chloro-1H-indole-2-carboxylic acid quinolin-3-ylamide] | 36 |  |  | 2800 nM |  |
| CCCCCc1ccc(C(=O)Nc2cnc3ccccc3c2)s1 [5-Pentyl-thiophene-2-carboxylic acid quinolin-3-ylamide] | 57 | 647 nM |  | 900 nM |  |
| CN(Cc1ccccc1)c1ccc(C(=O)Nc2cnc3ccccc3c2)cn1 [6-(Benzyl-methyl-amino)-N-quinolin-3-yl-nicotinamide] | 43 |  |  | 390 nM |  |
| CN(c1ccc(C(=O)Nc2cnc3ccccc3c2)cn1)C1CCCCC1 [6-(Cyclohexyl-methyl-amino)-N-quinolin-3-yl-nicotinamide] | 99 | 35.9 nM and 218 nM |  | 300 nM and 245 nM |  |
| CCCCCN(C)c1ccc(C(=O)Nc2cnc3ccccc3c2)cn1 [6-(Methyl-pentyl-amino)-N-quinolin-3-yl-nicotinamide] | 91 | 122 nM |  | 400 nM |  |
| CN(CCc1ccccc1)c1ccc(C(=O)Nc2cnc3ccccc3c2)cn1 [6-(Methyl-phenethyl-amino)-N-quinolin-3-yl-nicotinamide] | 97 | 243 nM | 540 | 1200 nM |  |
| O=C(Nc1cnc2ccccc2c1)c1ccc(N2CCCCCC2)nc1 [6-Azepan-1-yl-N-quinolin-3-yl-nicotinamide] | 44 | 124 nM |  | 215 nM |  |
| O=C(Nc1cnc2ccccc2c1)c1ccc(NC2CCCCC2)nc1 [6-Cyclohexylamino-N-quinolin-3-yl-nicotinamide] | 1 |  |  | 990 nM |  |
| CCCCCNc1ccc(C(=O)Nc2cnc3ccccc3c2)cn1 [6-Pentylamino-N-quinolin-3-yl-nicotinamide] | 57 | 281000 nM | 8000 |  |  |
| O=C(CCc1ccc(C23CC4CCCC(CC(C4)C2)C3)cc1)Nc1cnc2ccccc2c1 [N-Quinolin-3-yl-3-(4-tricyclo{5.3.1.13,9}dodec-1-yl-phenyl)-propionamide] |  | 176 nM | 1900 |  |  |

The next lines start with the values.

| inhibition at 1 µM (human VR1 [1]) [%] | Ki (human VR1 [1]) | IC50 (human VR1 [2]; [3]) [nM] | IC50 (human VR1 [2]; [4]) | IC50 (human VR1 [2]; read-out: FLIPR functional assay IC50 hVR1 60 min, 60 min) [nM] | Compound |
| --- | --- | --- | --- | --- | --- |
| 104 | 23.1 nM | 66 |  |  | CCCCCC=CCCCN(C)c1ccc(C(=O)Nc2cnc3ccccc3c2)cc1 [4-(Dec-4-enyl-methyl-amino)-N-quinolin-3-yl-benzamide] |
| 104 | 29.8 nM | 46 | 1900 nM |  | CCC=CCCCN(C)c1ccc(C(=O)Nc2cnc3ccccc3c2)cc1 [4-(Hept-4-enyl-methyl-amino)-N-quinolin-3-yl-benzamide] |
| 97 | 83.3 nM | 100 | 786 nM |  | CCCCN(C)c1ccc(C(=O)Nc2cnc3ccccc3c2)cc1 [4-(Methyl-butyl-amino)-N-quinolin-3-yl-benzamide] |
| 101 | 36.5 nM | 48 |  |  | CCC=CCCCCCN(C)c1ccc(C(=O)Nc2cnc3ccccc3c2)cc1 [4-(Methyl-non-6-enyl-amino)-N-quinolin-3-yl-benzamide] |
| 105 | 14.7 nM |  |  | 190 | CCCCCCCCN(C)c1ccc(C(=O)Nc2cnc3ccccc3c2)cc1 [4-(Octyl-methyl-amino)-N-quinolin-3-yl-benzamide] |
| 105 | 71.6 nM | 360 |  |  | CCCN(CCc1ccccc1)c1ccc(C(=O)Nc2cnc3ccccc3c2)cc1 [4-(Phenethyl-propyl-amino)-N-quinolin-3-yl-benzamide] |
|  | 18.5 nM |  | 290 nM |  | O=C(Nc1cnc2ccccc2c1)c1ccc(N2CCCCCCC2)cc1 [4-Azocan-1-yl-N-quinolin-3-yl-benzamide] |
|  | 11.8 nM |  | 92 nM |  | O=C(Nc1cnc2ccccc2c1)c1ccc(N2CCCCCCCC2)cc1 [4-Azonan-1-yl-N-quinolin-3-yl-benzamide] |
| 100 | 25.6 nM |  | 440 nM |  | O=C(Nc1cnc2ccccc2c1)c1ccc(N2CCC(Cc3ccccc3)CC2)nc1 [4-Benzyl-3,4,5,6-tetrahydro-2H-{1,2′}bipyridinyl-5′-carboxylic acid quinolin-3-ylamide] |
| 97 | 64.9 nM |  | 10000 nM |  | CC(C)(C)C1CCC(C(=O)Nc2cnc3ccccc3c2)CC1 (stereo not drawn) [4-tert-Butyl-cyclohexanecarboxylic acid quinolin-3-ylamide] |
| 99 | 20.9 nM | 1300 | 10000 nM |  | CN(CCC(C)(C)C)c1ccc(C(=O)Nc2cnc3ccccc3c2)cc1 [4-{(3,3-Dimethyl-butyl)-methyl-amino}-N-quinolin-3-yl-benzamide] |
| 97 | 74.1 nM | 156 | 10000 nM |  | CN(CCCc1ccccc1)c1ccc(C(=O)Nc2cnc3ccccc3c2)cc1 [4-{Methyl-(3-phenyl-propyl)-amino}-N-quinolin-3-yl-benzamide] |
| 102 | 31.2 nM |  | 1500 nM |  | Cc1ccc(C(C)CCN(C)c2ccc(C(=O)Nc3cnc4ccccc4c3)cc2)o1 (stereo not drawn) [4-{Methyl-{3-(5-methyl-furan-2-yl)-butyl}-amino}-N-quinolin-3-yl-benzamide] |
|  | 62.3 nM |  | 10000 nM |  | O=C(Nc1cnc2ccccc2c1)c1ccc2c(c1)CCCC2 [5,6,7,8-Tetrahydro-naphthalene-2-carboxylic acid quinolin-3-ylamide] |
| 80 | 9.86 nM | 279 | 3700 nM |  | O=C(Nc1cnc2ccccc2c1)c1ccc(N2CC3CCCC(C3)C2)nc1 [6-(3-Aza-bicyclo{3.3.1}non-3-yl)-N-quinolin-3-yl-nicotinamide] |
| 90 | 97.3 nM |  | 1500 nM |  | CCCCCCCN(C)c1ccc(C(=O)Nc2cnc3ccccc3c2)cn1 [6-(Heptyl-methyl-amino)-N-quinolin-3-yl-nicotinamide] |
| 102 | 30.4 nM | 250 | 5160 nM |  | O=C(Nc1cnc2ccccc2c1)c1ccc(N2CCCCCCC2)nc1 [6-Azocan-1-yl-N-quinolin-3-yl-nicotinamide] |
|  | 13 nM |  | 70 nM |  | CC1(C)CCC(C)(C)c2cc(CCC(=O)Nc3cnc4ccccc4c3)ccc21 [N-Quinolin-3-yl-3-(5,5,8,8-tetramethyl-5,6,7,8-tetrahydro-naphthalen-2-yl)-propionamide] |
